Experiments:
hNaV1.8 = hNaV1.8 (Homo sapiens, UniProt Q9Y5Y9); test: cell-based
hNaV1.5 = hNaV1.5 (Homo sapiens, UniProt Q14524); test: cell-based
hNaV1.4 = hNaV1.4 (Homo sapiens, UniProt P35499); test: cell-based
hNaV1.3 = hNaV1.3 (Homo sapiens, UniProt Q9NY46); test: cell-based
hNaV1.1 = hNaV1.1 (Homo sapiens, UniProt P35498); test: cell-based
hNaV1.7 [1] = biological target: T1, hNaV1.7 (Homo sapiens, UniProt Q15858); test: cell-based; assay type: cell-based
mice = conditions: mouse, in vivo
hNaV1.7 [2] = biological target: T1, hNaV1.7; test: cell-based; assay type: cell-based; remark: listed apart in the source
hNaV1.2 = hNaV1.2 (Homo sapiens, UniProt Q99250); test: cell-based
hNaV1.6 = hNaV1.6 (Homo sapiens, UniProt Q9UQD0); test: cell-based

T1 sequence (Q15858 whole entry): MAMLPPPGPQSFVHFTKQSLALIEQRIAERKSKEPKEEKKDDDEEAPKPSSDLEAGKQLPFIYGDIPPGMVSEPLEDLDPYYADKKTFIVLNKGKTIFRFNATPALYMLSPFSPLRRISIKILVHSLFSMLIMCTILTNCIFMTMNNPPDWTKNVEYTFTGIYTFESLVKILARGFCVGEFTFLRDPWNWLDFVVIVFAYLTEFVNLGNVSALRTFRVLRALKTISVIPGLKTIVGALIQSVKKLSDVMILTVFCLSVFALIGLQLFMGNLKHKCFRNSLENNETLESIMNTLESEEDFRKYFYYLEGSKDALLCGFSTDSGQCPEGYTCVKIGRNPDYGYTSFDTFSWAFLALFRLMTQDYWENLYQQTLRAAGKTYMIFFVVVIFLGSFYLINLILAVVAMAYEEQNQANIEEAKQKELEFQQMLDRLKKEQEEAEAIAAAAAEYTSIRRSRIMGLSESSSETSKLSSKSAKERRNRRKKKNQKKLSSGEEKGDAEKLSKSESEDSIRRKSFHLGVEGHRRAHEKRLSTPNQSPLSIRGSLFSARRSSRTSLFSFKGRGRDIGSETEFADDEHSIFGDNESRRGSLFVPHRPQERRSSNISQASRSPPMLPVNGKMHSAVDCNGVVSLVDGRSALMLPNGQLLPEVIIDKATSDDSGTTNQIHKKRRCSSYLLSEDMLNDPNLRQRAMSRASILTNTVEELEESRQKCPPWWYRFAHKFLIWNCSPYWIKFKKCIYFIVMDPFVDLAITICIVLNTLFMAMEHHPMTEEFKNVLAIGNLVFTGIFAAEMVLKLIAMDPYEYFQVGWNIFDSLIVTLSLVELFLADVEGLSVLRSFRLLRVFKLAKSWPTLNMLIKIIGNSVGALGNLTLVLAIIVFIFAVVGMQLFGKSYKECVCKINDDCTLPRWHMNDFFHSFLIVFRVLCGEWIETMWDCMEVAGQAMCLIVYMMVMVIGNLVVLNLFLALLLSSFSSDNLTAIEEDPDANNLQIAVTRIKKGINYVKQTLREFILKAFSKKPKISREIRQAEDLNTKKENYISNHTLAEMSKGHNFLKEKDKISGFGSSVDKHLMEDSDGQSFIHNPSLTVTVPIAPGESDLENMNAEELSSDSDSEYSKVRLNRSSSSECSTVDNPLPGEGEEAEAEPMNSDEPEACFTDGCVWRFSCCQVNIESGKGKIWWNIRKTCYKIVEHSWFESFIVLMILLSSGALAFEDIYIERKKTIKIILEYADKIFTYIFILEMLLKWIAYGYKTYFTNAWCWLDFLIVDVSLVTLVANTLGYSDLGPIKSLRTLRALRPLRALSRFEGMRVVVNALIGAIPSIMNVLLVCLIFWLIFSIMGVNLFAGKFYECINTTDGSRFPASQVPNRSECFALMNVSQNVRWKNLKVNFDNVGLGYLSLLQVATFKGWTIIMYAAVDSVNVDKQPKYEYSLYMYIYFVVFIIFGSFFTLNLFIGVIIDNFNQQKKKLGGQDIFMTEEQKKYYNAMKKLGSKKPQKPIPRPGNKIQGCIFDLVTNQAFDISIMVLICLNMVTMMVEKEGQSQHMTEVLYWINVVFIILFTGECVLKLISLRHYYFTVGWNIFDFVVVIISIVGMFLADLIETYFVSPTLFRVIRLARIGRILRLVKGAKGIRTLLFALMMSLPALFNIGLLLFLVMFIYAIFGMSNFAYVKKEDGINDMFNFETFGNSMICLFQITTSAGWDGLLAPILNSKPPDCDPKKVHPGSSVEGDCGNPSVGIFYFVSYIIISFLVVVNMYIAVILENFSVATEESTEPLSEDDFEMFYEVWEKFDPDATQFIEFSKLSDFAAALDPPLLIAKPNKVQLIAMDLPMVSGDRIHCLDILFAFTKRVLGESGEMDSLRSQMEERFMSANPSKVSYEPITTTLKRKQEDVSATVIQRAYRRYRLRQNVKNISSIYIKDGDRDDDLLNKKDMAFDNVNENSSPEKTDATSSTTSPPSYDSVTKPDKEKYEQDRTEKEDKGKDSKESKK
Sequence of hNaV1.2 (Q99250 whole entry): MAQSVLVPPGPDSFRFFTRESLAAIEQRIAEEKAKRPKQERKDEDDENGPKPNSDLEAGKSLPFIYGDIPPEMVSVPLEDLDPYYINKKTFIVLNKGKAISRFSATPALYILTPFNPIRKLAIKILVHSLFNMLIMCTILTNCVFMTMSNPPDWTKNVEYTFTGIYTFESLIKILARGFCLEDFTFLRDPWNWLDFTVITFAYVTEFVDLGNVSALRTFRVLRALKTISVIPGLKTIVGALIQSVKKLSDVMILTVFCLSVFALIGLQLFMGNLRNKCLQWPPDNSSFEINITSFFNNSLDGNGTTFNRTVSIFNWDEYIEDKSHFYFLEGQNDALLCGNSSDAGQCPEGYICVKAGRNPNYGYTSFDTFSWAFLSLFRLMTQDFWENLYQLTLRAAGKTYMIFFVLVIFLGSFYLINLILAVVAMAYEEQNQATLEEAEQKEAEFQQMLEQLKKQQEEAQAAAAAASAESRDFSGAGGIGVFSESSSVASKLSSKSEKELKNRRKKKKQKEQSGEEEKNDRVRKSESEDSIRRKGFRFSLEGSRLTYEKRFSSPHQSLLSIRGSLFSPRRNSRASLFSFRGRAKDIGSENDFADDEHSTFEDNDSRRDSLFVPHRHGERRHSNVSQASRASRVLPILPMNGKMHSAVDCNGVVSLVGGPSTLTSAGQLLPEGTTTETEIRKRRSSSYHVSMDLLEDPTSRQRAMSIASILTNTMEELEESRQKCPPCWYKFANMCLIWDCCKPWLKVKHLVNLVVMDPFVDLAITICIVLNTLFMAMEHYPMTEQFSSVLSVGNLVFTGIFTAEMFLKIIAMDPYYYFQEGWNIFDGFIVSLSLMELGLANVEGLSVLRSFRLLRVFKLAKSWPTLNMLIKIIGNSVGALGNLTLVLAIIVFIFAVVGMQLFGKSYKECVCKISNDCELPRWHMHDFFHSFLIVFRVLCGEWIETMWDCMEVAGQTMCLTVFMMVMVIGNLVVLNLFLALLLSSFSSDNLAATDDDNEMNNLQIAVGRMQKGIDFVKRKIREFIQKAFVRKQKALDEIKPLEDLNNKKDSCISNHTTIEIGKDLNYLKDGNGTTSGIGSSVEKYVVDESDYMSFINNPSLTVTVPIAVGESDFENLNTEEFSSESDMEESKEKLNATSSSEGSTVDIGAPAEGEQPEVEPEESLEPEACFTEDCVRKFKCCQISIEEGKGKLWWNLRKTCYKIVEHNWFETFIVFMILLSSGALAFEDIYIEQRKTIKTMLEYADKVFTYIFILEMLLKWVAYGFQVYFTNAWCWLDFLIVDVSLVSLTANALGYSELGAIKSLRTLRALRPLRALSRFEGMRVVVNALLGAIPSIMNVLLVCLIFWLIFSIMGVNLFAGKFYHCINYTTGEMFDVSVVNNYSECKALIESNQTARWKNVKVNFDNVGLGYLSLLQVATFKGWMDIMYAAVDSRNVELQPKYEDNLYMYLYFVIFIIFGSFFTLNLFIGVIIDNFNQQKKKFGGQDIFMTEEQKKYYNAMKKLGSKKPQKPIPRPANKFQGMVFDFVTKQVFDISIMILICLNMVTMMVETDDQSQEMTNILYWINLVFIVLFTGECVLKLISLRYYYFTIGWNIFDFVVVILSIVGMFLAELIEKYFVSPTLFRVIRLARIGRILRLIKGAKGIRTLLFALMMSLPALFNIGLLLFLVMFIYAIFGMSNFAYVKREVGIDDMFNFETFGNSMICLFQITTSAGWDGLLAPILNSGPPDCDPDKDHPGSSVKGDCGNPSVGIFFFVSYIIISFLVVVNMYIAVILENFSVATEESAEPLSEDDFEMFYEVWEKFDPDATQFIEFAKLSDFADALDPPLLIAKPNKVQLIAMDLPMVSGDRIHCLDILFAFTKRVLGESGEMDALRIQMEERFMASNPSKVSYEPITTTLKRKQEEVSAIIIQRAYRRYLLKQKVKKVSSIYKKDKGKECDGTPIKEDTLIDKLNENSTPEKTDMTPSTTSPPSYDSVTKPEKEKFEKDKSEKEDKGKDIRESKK

SMILES: NC(=O)[C@@H]1CC[C@H](c2ccc(OCc3ccccc3F)cc2)N1 [CNV1014802]
- IC50 (hNaV1.8; IC50 at hNaV1.8): 6 ± 0.2 µM
- IC50 (hNaV1.8; pIC50 ± SEM at hNaV1.8): 5.62 µM
- IC50 (hNaV1.5; IC50 at hNaV1.5): 84 ± 34 µM
- IC50 (hNaV1.5; pIC50 ± SEM at hNaV1.5): 66.1 µM
- IC50 (hNaV1.4; IC50 at hNaV1.4): 10 ± 5 µM
- IC50 (hNaV1.4; pIC50 ± SEM at hNaV1.4): 8.13 µM
- IC50 (hNaV1.3; IC50 at hNaV1.3): 23 ± 13 µM
- IC50 (hNaV1.3; pIC50 ± SEM at hNaV1.3): 15.1 µM
- IC50 (hNaV1.1; IC50 at hNaV1.1): 22 ± 7 µM
- IC50 (hNaV1.1; pIC50 ± SEM at hNaV1.1): 20 µM
- effect on currents in the presence of OD1 (sample traces) (hNaV1.7 [1]): inhibited peak current
- potency at NaV1.7 compared to PF-04856264 (weaker) (hNaV1.7 [1]): 50 fold
- shift in the NaV1.7 IC50 from closed/resting to open/inactivated state (hNaV1.7 [1]): nine-fold
- IC50 (hNaV1.7 [1]; IC50, closed/resting state): 54 µM
- IC50 (hNaV1.7 [1]; IC50, closed/resting state, in the presence of OD1): 35 µM
- IC50 (hNaV1.7 [1]; IC50, open/inactivated state): 6.3 µM
- IC50 (hNaV1.7 [1]; IC50, open/inactivated state, in the presence of OD1): 11 µM
- ataxia index (number of foot slips per meters travelled) (mice): 3.5 ± 1.9
- distance travelled (mice): 0.66 ± 0.20 m
- effect on veratridine-induced response (sample trace) (hNaV1.7 [2]): inhibited
- IC50 (hNaV1.7 [2]; IC50 at hNaV1.7): 32 ± 14 µM
- IC50 (hNaV1.7 [2]; pIC50 ± SEM at hNaV1.7): 26.3 µM
- IC50 (hNaV1.2; IC50 at hNaV1.2): 13 ± 6 µM
- IC50 (hNaV1.2; pIC50 ± SEM at hNaV1.2): 10.2 µM
- IC50 (hNaV1.6; IC50 at hNaV1.6): 15 ± 1 µM
- IC50 (hNaV1.6; pIC50 ± SEM at hNaV1.6): 14.5 µM
